# PubChem BioAssay (NCI)
#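 Grown in 96-well plates, cells were treated for 48 hours with each compound at five concentrations. Insufficient inhibition: endpoint recorded as highest concentration tested. Abbreviation: GI50, concentration required for 50% inhibition of growth. At the TGI there is no net growth.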
# Legend:
# Experiment in all cases: NCI-60 cell line screen, 48 h
# RPMI-8226 leukemia = system: RPMI-8226 leukemia
# SK-MEL-28 melanoma = system: SK-MEL-28 melanoma
# KM12 colon = system: KM12 colon
# BT-549 breast = system: BT-549 breast
# NCI-H23 lung = system: NCI-H23 lung
# K-562 leukemia = system: K-562 leukemia
# CAKI-1 renal = system: CAKI-1 renal
# UO-31 renal = system: UO-31 renal
SMILES,GI50 (RPMI-8226 leukemia) [µM],TGI (RPMI-8226 leukemia) [µM],GI50 (SK-MEL-28 melanoma) [µM],TGI (SK-MEL-28 melanoma) [µM],GI50 (KM12 colon) [µM],TGI (KM12 colon) [µM],GI50 (BT-549 breast) [µM],TGI (BT-549 breast) [µM],GI50 (NCI-H23 lung) [µM],TGI (NCI-H23 lung) [µM],GI50 (K-562 leukemia) [µM],TGI (K-562 leukemia) [µM],GI50 (CAKI-1 renal) [µM],TGI (CAKI-1 renal) [µM],GI50 (UO-31 renal) [µM],TGI (UO-31 renal) [µM]
Oc1c(-c2nnc(-c3ccccc3Cl)o2)sc2nnc(-c3ccccc3)c(-c3ccccc3)c12,2.92,> 100,16.4,> 100,4.36,51.3,12.6,> 100,4.87,> 100,3.28,> 100,0.501,24.6,2.38,8.4
CCOC(=O)/C(C=Nc1ccc(-c2nc3ccccc3[nH]2)cc1)=C(/C)O,8.12,40.1,–,–,7.8,24,10,24.9,15,31,4.51,14.8,17.6,> 50,10.3,31.1
NS(=O)(=O)c1ccc(-n2nc(-c3ccc(Cl)cc3)cc2-c2cc(O)ccc2O)cc1,3.15,11.7,–,–,13.4,32.6,23.9,58.3,18.3,34.6,4.9,21.2,7.9,22.8,26.5,> 100
CC1(C)C2CCC13C(=O)C1OC3(C2)C2C(=O)c3cc4ccccc4cc3C(=O)C12 (stereo not drawn),–,–,8.36,> 100,3.79,25.1,–,–,4.75,32.6,4.92,33.7,1.29,5.33,19.6,> 100
COC(=O)C1CC23CCCN4CCC5(c6ccccc6N(C=O)C15CC2)C43 (stereo not drawn),–,> 100,–,> 100,–,> 100,–,> 100,–,> 100,–,–,–,> 100,–,> 100
CCCCCCCCNc1cc2c3c(c1)CCCN3CCC2,5.55,> 100,3.87,17.8,1.63,10.6,2.28,12.3,1.79,18.1,0.433,> 100,–,–,3.17,17.7
COc1ccc(C(=S)N2CCN(c3cccc(C)c3)CC2)cc1OC,–,–,5.42,> 100,2.82,> 100,6.31,> 100,9.08,> 100,1.2,> 100,3.21,> 100,4.37,> 100
C=CCN=c1sc2c(n1NC(=O)c1cc3ccc1CCc1ccc(cc1)CC3)C(=O)c1ccccc1C2=O,–,–,1.87,3.35,2.68,8.8,1.53,2.91,1.46,3.76,–,–,1.18,2.86,0.496,2.09
Cc1cccc(/C=C/c2c(C(=O)/C=C/c3ccccc3)c(C)nc3ccccc23)c1,–,–,1.81,3.28,1.72,3.56,–,–,1.58,3.57,–,–,1.29,2.59,1.26,2.51
